Experimental findings from patent publication US7189714B2, “N-type calcium channel antagonists for the treatment of pain” (Astrazeneca AB, priority 2000, dated 2007) are described below.

The target of experiment [1] is N-type calcium channel (Homo sapiens, UniProt Q00975). Briefly: N-channel FLIPR assay (inhibition of K+-evoked calcium flux in differentiated IMR32 cells). The class given is cell-based. The conditions noted are these: 80 mM K+ stimulus.
Experiment [2] relates to L-type calcium channel. In words: L-channel FLIPR assay (SK-N-SH cells). The class given is cell-based, human. The conditions noted are these: L-channel reference on each plate, near IC50; read-out: reference concentration near IC50.
Procedure: An immortalized cell line, SK-N—SH, derived from human neuroblastoma cells (ATCC product # HTB-11) was used for all experiments. Cells were grown in T75 flasks containing Eagle's minimum essential medium (MEM) w/Earle's salts, with 0.1 mM non-essential amino acids, 1.0 mM Na pyruvate and 10% fetal bovine serum (FBS; Cat. # SLM-034-B, Specialty Media). Cells were grown to 100% confluency (by visual microscopic estimation) before sub-culture. Cells were sub-cultured at a ratio of 1:3 by first rinsing with 3 mL PBS, replacing the PBS with PBS containing 0.25% trypsin until the cells detached from the surface. 1 mL of the resulting suspension was then added to a new flask containing 10 mL fresh media. Cells were then incubated (37° C., 5% CO2), and media was exchanged about 3 days after subculturing.
B. Preparation of Cells for Experiments:
Cells used for experiments were at the 100% confluency growth stage. Each flask provided enough cells for three 96-well plates. […]
Maximum signal (L-channel+non-specific): 12 wells received 20 μL buffer addition only (no nitrendipine) in the first solution addition sequence to define the maximal K^+-evoked Ca^2+ increase mediated by L-channels+non-specific (non-L-channel mediated fluorescence increase). The coefficient of variation amongst these wells for the K^+-evoked peak increase in fluorescence units was typically less than 12%. […]

Chain of N-type calcium channel (Q00975 whole entry): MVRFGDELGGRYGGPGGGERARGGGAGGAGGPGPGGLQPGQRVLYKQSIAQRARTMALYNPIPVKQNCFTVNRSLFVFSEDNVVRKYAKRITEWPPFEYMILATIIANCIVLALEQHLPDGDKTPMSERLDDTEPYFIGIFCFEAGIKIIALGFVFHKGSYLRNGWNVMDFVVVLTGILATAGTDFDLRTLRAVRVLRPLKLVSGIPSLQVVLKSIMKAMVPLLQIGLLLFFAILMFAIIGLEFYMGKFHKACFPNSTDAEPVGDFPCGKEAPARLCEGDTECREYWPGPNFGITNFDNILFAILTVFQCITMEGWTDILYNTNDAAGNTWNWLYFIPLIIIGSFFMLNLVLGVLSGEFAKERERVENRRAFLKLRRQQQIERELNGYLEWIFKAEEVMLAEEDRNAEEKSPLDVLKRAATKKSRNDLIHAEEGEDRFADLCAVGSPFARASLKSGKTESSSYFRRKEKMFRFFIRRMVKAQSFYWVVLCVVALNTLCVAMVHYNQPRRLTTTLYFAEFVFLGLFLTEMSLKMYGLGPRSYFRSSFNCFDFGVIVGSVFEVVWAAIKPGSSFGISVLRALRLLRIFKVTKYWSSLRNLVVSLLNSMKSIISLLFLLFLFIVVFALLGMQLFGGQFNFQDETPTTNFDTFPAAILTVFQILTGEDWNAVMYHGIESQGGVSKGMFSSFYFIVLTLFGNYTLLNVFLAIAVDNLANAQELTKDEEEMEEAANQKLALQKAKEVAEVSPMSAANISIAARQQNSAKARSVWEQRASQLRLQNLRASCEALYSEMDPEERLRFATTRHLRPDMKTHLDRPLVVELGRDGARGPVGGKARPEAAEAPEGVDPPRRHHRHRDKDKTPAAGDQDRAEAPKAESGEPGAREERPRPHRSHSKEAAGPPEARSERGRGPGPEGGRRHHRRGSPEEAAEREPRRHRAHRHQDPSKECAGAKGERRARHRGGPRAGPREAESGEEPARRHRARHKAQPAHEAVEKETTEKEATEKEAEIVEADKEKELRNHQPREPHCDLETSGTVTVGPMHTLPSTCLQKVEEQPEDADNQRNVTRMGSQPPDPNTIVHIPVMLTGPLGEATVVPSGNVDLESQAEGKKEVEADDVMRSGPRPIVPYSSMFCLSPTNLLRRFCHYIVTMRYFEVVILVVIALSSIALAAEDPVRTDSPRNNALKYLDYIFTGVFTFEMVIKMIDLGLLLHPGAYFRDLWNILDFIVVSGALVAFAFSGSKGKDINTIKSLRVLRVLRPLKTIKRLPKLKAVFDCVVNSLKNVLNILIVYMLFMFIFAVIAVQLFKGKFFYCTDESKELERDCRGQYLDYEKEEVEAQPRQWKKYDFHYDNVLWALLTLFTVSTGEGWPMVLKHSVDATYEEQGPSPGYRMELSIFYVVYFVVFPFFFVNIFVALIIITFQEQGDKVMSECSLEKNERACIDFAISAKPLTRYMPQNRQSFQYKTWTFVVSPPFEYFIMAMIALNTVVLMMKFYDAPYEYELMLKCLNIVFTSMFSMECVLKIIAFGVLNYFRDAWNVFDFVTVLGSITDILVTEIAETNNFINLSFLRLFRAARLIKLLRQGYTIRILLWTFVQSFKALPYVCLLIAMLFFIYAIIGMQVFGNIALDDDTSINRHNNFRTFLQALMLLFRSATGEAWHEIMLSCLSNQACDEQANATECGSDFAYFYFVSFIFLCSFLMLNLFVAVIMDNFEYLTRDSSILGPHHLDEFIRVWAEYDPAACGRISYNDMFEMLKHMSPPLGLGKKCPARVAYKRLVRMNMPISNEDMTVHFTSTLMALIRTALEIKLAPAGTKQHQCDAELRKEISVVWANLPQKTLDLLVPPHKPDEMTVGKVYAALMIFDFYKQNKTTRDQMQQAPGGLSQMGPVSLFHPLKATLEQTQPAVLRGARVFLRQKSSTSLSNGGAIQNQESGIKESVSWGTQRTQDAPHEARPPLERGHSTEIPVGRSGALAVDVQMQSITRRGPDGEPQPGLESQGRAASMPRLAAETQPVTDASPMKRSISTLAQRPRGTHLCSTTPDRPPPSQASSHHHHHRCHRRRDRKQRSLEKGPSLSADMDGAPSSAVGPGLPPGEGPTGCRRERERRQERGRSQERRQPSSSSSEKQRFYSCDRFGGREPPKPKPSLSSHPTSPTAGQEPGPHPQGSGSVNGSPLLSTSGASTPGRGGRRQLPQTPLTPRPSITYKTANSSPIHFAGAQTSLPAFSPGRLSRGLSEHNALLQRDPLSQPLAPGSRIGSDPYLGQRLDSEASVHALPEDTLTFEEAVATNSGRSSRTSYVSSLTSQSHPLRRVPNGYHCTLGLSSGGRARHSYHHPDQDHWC
Chain of N-type calcium channel (P54289 25-1103 partner): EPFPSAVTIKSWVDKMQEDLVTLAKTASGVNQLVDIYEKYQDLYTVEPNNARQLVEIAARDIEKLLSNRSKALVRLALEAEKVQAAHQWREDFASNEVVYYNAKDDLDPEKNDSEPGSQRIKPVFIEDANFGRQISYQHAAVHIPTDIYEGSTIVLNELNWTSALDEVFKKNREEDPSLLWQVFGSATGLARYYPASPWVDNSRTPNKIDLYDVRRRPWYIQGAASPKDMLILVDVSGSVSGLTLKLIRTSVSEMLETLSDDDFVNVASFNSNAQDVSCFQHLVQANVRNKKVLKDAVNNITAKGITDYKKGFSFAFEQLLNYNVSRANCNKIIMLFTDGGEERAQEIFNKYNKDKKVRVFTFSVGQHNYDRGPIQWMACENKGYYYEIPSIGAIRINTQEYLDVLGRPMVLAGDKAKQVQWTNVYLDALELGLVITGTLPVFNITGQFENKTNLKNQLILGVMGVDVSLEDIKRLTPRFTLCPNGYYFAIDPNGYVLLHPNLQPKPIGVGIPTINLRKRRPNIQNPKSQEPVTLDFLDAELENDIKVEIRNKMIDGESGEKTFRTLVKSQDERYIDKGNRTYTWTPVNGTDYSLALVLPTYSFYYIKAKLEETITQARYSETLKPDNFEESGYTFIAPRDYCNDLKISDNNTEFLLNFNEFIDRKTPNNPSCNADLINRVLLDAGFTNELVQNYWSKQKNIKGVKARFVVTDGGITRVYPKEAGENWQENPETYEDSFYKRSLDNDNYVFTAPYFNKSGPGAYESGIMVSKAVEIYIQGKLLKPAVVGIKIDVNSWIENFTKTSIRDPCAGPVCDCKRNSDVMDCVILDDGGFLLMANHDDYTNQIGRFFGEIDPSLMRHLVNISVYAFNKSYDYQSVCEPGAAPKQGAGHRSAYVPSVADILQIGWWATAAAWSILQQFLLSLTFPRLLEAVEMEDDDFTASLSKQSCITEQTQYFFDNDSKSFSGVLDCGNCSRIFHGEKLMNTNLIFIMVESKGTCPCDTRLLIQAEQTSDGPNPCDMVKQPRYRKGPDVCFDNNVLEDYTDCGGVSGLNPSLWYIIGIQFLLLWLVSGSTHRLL
Chain of N-type calcium channel (P54284 whole entry partner): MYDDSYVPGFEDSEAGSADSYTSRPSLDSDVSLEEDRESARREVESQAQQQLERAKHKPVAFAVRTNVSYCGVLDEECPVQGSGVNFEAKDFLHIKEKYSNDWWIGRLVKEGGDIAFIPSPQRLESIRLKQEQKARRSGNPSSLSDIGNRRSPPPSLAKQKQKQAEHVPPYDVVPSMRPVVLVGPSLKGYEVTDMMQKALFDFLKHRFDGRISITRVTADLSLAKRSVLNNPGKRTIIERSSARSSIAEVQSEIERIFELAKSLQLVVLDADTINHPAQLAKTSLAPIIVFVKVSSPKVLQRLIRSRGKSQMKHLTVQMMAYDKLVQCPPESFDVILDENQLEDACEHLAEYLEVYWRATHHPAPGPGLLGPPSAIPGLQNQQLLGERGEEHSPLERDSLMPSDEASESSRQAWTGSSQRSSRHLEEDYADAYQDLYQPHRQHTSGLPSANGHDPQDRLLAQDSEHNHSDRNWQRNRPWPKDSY

For “2-(3-Fluorophenyl)-N4-morpholin-4-yl-N6-cyclopropyl-quinoline-4,6-diamine [Example 32]”, the IC50 in experiment [1] was found to be 6.46 µM.
For the compound `Nc1ccc2nc(-c3ccc(Cl)cc3)cc(N)c2c1` [Example 1, 2-(4-Chlorophenyl)-quinoline-4,6-diamine], the IC50 in experiment [1] came to 36.3 µM.
Take `Nc1ccc2nc(-c3ccccc3)cc(N)c2c1` [Example 3, 2-Phenyl-quinoline-4,6-diamine]: in experiment [1], the IC50 turned out to be 17.2 µM.
Still for that read-out and setting: in the case of `Nc1ccc2nc(-c3ccccc3)cc(NCc3ccccc3)c2c1` [Example 4, 2-Phenyl-N4-benzyl-quinoline-4,6-diamine] it was 3.54 µM; in that of `Nc1ccc2nc(-c3cccc(C(F)(F)F)c3)cc(N)c2c1` [Example 5, 2-(3-Trifluoromethylphenyl)-quinoline-4,6-diamine], 5.83 µM.
As to `CN(C)c1cc(-c2ccccc2)nc2ccc(N)cc12` [Example 6, 2-Phenyl-N4,N4-dimethyl-quinoline-4,6-diamine], the IC50 in experiment [1] was 6.11 µM.
As for `CCCNc1cc(-c2ccccc2)nc2ccc(N)cc12` [Example 7, 2-Phenyl-N4-propyl-quinoline-4,6-diamine], the IC50 in experiment [1] came to 1.99 µM.
Still for that read-out and setting: then `COc1cccc(-c2cc(N)c3cc(N)ccc3n2)c1` [Example 9, 2-(3-Methoxyphenyl)-quinoline-4,6-diamine], with 2.71 µM; and `Nc1ccc2nc(-c3cccc(F)c3)cc(N)c2c1` [Example 10, 2-(3-Fluorophenyl)-quinoline-4,6-diamine], with 3.81 µM.
As to `COc1ccc(-c2cc(N)c3cc(N)ccc3n2)cc1` [Example 11, 2-(4-Methoxyphenyl)-quinoline-4,6-diamine], the IC50 in experiment [1] stood at 6.91 µM.
Consider `CCCCCc1cc(N)c2cc(N)ccc2n1` [Example 12, 2-Pentyl-quinoline-4,6-diamine], for which the IC50 in experiment [1] was found to be 1.89 µM.
As for `COc1ccccc1-c1cc(N)c2cc(N)ccc2n1` [Example 13, 2-(2-Methoxyphenyl)-quinoline-4,6-diamine], in experiment [1], the IC50 was 10.5 µM.
The same measure, in the same setting: then `Nc1ccc2nc(COc3ccccc3)cc(N)c2c1` [Example 14, 2-Phenoxymethyl-quinoline-4,6-diamine], with 2.59 µM; and `Nc1ccc2nc(-c3ccccc3Cl)cc(N)c2c1` [Example 15, 2-(2-Chlorophenyl)-quinoline-4,6-diamine], with 4.13 µM.
Still for that read-out and setting: in the case of `Nc1ccc2nc(-c3ccccc3F)cc(N)c2c1` [Example 16, 2-(2-Fluorophenyl)-quinoline-4,6-diamine] it was 81.6 µM.
Still for that read-out and setting: in the case of `Nc1ccc2nc(-c3ccc(C4CCCCC4)cc3)cc(N)c2c1` [Example 19, 2-(4-Cyclohexylphenyl)-quinoline-4,6-diamine] it was 7.96 µM; in that of `Nc1ccc2nc(-c3ccc(Br)cc3)cc(N)c2c1` [Example 20, 2-(4-Bromophenyl)-quinoline-4,6-diamine], 3.18 µM; in that of `Nc1ccc2nc(-c3cccc(Br)c3)cc(N)c2c1` [Example 21, 2-(3-Bromophenyl)-quinoline-4,6-diamine], 2.54 µM.
Regarding `CNc1ccc2nc(-c3ccccc3F)cc(N)c2c1` [Example 23, 2-(2-Fluorophenyl)-N6-methyl-quinoline-4,6-diamine], the IC50 in experiment [1] came out at 3.51 µM.
Still for that read-out and setting: then `CNc1ccc2nc(-c3cccc(F)c3)cc(N)c2c1` [Example 24, 2-(3-Fluorophenyl)-N6-methyl-quinoline-4,6-diamine], with 2.68 µM; and `Nc1ccc2nc(-c3cccc(Cl)c3)cc(N)c2c1` [Example 25, 2-(3-Chlorophenyl)-quinoline-4,6-diamine], with 4.83 µM; and `CN(C)c1ccc2nc(-c3cccc(F)c3)cc(N(C)C)c2c1` [Example 26, 2-(3-Fluorophenyl)-N4,N4,N6,N6-tetramethyl-quinoline-4,6-diamine], with 4.9 µM.
Still for that read-out and setting: then `CN(C)c1cc(-c2cccc(F)c2)nc2ccc(N)cc12` [Example 27, 2-(3-Fluorophenyl)-N4,N4-dimethyl-quinoline-4,6-diamine], with 5.55 µM; and `CNc1ccc2nc(-c3cccc(F)c3)cc(N(C)C)c2c1` [Example 28, 2-(3-Fluorophenyl)-N4,N4,N6-trimethyl-quinoline-4,6-diamine], with 3.81 µM.
With `CN(C)c1cc(-c2cccc(F)c2)nc2ccc(NC3CC3)cc12` [Example 29, 2-(3 -Fluorophenyl)-N4,N4-dimethyl-N6-cyclopropyl-quinoline-4,6-diamine], the IC50 in experiment [1] was determined as 5.44 µM.
On the same count and under the same terms, then `CC(C)Nc1ccc2nc(-c3cccc(F)c3)cc(N(C)C)c2c1` [Example 33, 2-(3-Fluorophenyl)-N4,N4-dimethyl-N6-isopropyl-quinoline-4,6-diamine], with 2.82 µM; and `CNc1ccc2nc(-c3cccc(F)c3)cc(NC)c2c1` [Example 37, 2-(3-Fluorophenyl)-N4,N6-dimethyl-quinoline-4,6-diamine], with 2.18 µM; and `CN(C)c1cc(-c2cccc(F)c2)nc2ccc(N3CCCC3)cc12` [Example 38, 2-(3-Fluorophenyl)-N4,N4-dimethyl-6-pyrrolidin-1-yl-quinolin-4-amine], with 9.15 µM.
With `CNc1cc(-c2cccc(F)c2)nc2ccc(N)cc12` [Example 39, 2-(3-Fluorophenyl)-N4-methyl-quinoline-4,6-diamine], the IC50 in experiment [1] amounted to 4.53 µM.
Still for that read-out and setting: in the case of `CN(C)c1cc(-c2cccc(F)c2)nc2ccc(Nc3cccc(N)n3)cc12` [Example 40, 2-(3-Fluorophenyl)-N4,N4-dimethyl-N6-(6-amino-pyridin-2-yl)-quinoline-4,6-diamine] it was 2.98 µM.
On the same count and under the same terms, in the case of `CNc1cc(-c2cccc(F)c2)nc2ccc(NC3CC3)cc12` [Example 41, 2-(3-Fluorophenyl)-N4-methyl-N6-cyclopropyl-quinoline-4,6-diamine] it was 1.8 µM; in that of `Cc1c(Nc2ccc3nc(-c4cccc(F)c4)cc(N(C)C)c3c2)c(=O)n(-c2ccccc2)n1C` [Example 44, 2-(3-Fluorophenyl)-N4,N4-dimethyl-N6-4-(1,5-dimethyl-2phenyl-1,2-dihydro-pyrazol-3-one)quinoline-4,6-diamine], 5.39 µM; in that of `CN(C)c1cc(-c2cccc(F)c2)nc2ccc(NC3CCC3)cc12` [Example 48, 2-(3-Fluorophenyl)-N4,N4-dimethyl-N6-cyclobutyl-quinoline-4,6-diamine], 7.74 µM.
As for `CN(C)c1cc(-c2cccc(F)c2)nc2ccc(NCC3CC3)cc12` [Example 49, 2-(3-Fluorophenyl)-N4,N4-dimethyl-N6-cyclopropylmethyl-quinoline-4,6-diamine], the IC50 in experiment [1] is 5.88 µM.
The same measure, in the same setting: in the case of `CN(C)c1cc(-c2cccc(F)c2)nc2ccc(NC3CCCC3)cc12` [Example 50, 2-(3-Fluorophenyl)-N4,N4-dimethyl-N6-cyclopentyl-quinoline-4,6-diamine] it was 5.9 µM; in that of `C=CCNc1ccc2nc(-c3cccc(F)c3)cc(N(C)C)c2c1` [Example 51, 2-(3-Fluorophenyl)-N4,N4-dimethyl-N6-allyl-quinoline-4,6-diamine], 3.78 µM; in that of `CN(C)c1cc(-c2cccc(Cl)c2)nc2ccc(NC3CC3)cc12` [Example 53, 2-(3-Chlorophenyl)-N4,N4-dimethyl-N6-cyclopropyl-quinoline-4,6-diamine], 7.19 µM.
Turning to `COCCNc1cc(-c2cccc(F)c2)nc2ccc(NC3CC3)cc12` [Example 54, 2-(3-Fluorophenyl)-N4-(2-methoxy-ethyl)-N6-cyclopropyl-quinoline-4,6-diamine], the IC50 in experiment [1] was determined as 1.75 µM.
Same read-out and setting: then `CN(C)c1cc(-c2cccc(N3CCOCC3)c2)nc2ccc(NC3CC3)cc12` [Example 55, 2-(3-Morpholin-4-ylphenyl)-N4,N4-dimethyl-N6-cyclopropyl-quinoline-4,6-diamine], with 2.31 µM.
Regarding `CN(C)c1cc(-c2cccc(N3CCOCC3)c2)nc2ccc(N)cc12` [Example 56, 2-(3-Morpholin-4-ylphenyl)-N4,N4-dimethyl-quinoline-4,6-diamine], the IC50 in experiment [1] came out at 6.38 µM.
For the compound `CCOC(=O)C1=C(C)NC(C)=C(C(=O)OC)C1c1cccc([N+](=O)[O-])c1` (centres unmarked) [nitrendipine], the IC50 in experiment [2] was approximately 0.03 µM.
